{"source": "ChEMBL document CHEMBL5154871", "about": "“Non-peptidyl non-covalent cathepsin C inhibitoEEr bearing a unique thiophene-substituted pyridine: Design, structure-activity relationship and anti-inflammatory activity in vivo” (Eur J Med Chem, 2022)", "key": {"Dipeptidyl peptidase 1": {"target": "Dipeptidyl peptidase 1 (Homo sapiens, UniProt P53634)", "sequence (P53634 25-134 limits assumed)": "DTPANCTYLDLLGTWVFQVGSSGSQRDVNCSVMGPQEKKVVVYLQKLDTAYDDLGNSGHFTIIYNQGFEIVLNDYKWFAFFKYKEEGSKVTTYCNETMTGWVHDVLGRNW", "sequence (P53634 231-394 limits assumed)": "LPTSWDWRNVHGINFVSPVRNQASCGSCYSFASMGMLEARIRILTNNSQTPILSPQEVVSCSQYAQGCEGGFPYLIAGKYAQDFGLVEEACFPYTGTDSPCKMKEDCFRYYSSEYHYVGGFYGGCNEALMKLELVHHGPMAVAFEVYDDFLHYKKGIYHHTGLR", "sequence (P53634 395-463 limits assumed)": "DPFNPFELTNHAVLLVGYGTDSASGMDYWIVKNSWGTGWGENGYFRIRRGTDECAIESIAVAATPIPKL", "assay": "Inhibition of Cathepsin C in human U-937 cells using H-Gly-Phe-AFC as substrate pretreated for 1 hr followed by substrate addition and incubated for 60 mins by microplate reader assay", "format": "cell-based"}, "Cathepsin B": {"target": "Cathepsin B (Homo sapiens, UniProt P07858)", "assay": "Inhibition of human recombinant Cathepsin B using Z-Leu-Arg-AMC as substrate pretreated for 60 mins followed by substrate addition and incubated for 30 mins by microplate reader assay"}, "[1]": {"assay": "Acute toxicity in ICR mouse assessed as pathological changes of heart at 1500 mg/kg, po administered as single dose measured after 7 days by H and E staining based assay", "format": "organism-based", "settings": "in vivo, time 7 day"}, "[2]": {"assay": "Half life in Sprague-Dawley rat at 10 mg/kg, po measured for 24 hrs by LC-MS/MS analysis", "format": "ADME, organism-based", "settings": "in vivo"}, "[3]": {"assay": "Half life in Sprague-Dawley rat at 2 mg/kg, iv measured for 24 hrs by LC-MS/MS analysis", "format": "ADME, organism-based", "settings": "in vivo"}, "[4]": {"assay": "Tmax in Sprague-Dawley rat at 10 mg/kg, po measured after 24 hrs by LC-MS/MS analysis", "format": "ADME, organism-based", "settings": "in vivo"}, "[5]": {"assay": "MRT in Sprague-Dawley rat at 10 mg/kg, po measured after 24 hrs by LC-MS/MS analysis", "format": "ADME, organism-based", "settings": "in vivo"}, "[6]": {"assay": "MRT in Sprague-Dawley rat at 2 mg/kg, iv measured after 24 hrs by LC-MS/MS analysis", "format": "ADME, organism-based", "settings": "in vivo"}, "[7]": {"assay": "Cmax in Sprague-Dawley rat at 2 mg/kg, iv measured after 24 hrs by LC-MS/MS analysis", "format": "ADME, organism-based", "parameters": "time 24 hrs, dose 2 mg/kg, route iv", "settings": "in vivo"}, "[8]": {"assay": "AUC(last) in Sprague-Dawley rat at 10 mg/kg, po measured after 24 hrs by LC-MS/MS analysis", "format": "ADME, organism-based", "parameters": "dose 10 mg/kg, time 24 hrs, route po", "settings": "in vivo"}, "[9]": {"assay": "AUC(last) in Sprague-Dawley rat at 2 mg/kg, iv measured after 24 hrs by LC-MS/MS analysis", "format": "ADME, organism-based", "parameters": "dose 2 mg/kg, time 24 hrs, route iv", "settings": "in vivo"}, "[10]": {"target": "T1, Dipeptidyl peptidase 1 (Mus musculus) (UniProt P97821)", "T1 sequence (whole entry)": "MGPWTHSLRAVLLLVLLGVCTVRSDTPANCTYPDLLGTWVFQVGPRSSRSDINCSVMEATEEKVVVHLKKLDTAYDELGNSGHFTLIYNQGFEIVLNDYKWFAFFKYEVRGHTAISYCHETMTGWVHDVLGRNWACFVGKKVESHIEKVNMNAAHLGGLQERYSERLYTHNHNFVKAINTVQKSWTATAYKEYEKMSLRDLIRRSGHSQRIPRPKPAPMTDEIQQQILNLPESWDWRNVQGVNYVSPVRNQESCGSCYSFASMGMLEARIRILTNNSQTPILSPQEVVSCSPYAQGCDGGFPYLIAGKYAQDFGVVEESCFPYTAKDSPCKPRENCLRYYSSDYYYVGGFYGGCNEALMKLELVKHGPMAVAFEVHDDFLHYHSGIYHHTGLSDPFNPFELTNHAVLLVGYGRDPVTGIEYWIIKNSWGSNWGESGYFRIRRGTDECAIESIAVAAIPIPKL", "assay": "Inhibition of Cathepsin C in C57BL/6 mouse Bone marrow cells assessed as reduction of NSPs stability by measuring stability of protease 3 at 1 uM treated for 6 hrs by Western blotting analysis", "format": "cell-based", "parameters": "scale not given: the % may be the effect or the level left", "settings": "Bone marrow cell"}, "[11]": {"target": "T1, Dipeptidyl peptidase 1 (Mus musculus)", "assay": "Inhibition of Cathepsin C in C57BL/6 mouse Bone marrow cells assessed as reduction of NSPs stability by measuring stability of neutrophil elastase at 1 uM treated for 6 hrs by Western blotting analysis", "format": "cell-based", "parameters": "scale not given: the % may be the effect or the level left", "settings": "Bone marrow cell"}, "[12]": {"target": "T1, Dipeptidyl peptidase 1 (Mus musculus)", "assay": "Inhibition of Cathepsin C in C57BL/6 mouse Bone marrow cells assessed as reduction of NSPs stability by measuring stability of neutrophil elastase at 1 uM treated for 48 hrs by Western blotting analysis", "format": "cell-based", "parameters": "scale not given: the % may be the effect or the level left", "settings": "Bone marrow cell"}, "[13]": {"target": "T1, Dipeptidyl peptidase 1 (Mus musculus)", "assay": "Inhibition of Cathepsin C in C57BL/6 mouse Bone marrow cells assessed as reduction of NSPs stability by measuring stability of cathepsin G at 1 uM treated for 48 hrs by Western blotting analysis", "format": "cell-based", "parameters": "scale not given: the % may be the effect or the level left", "settings": "Bone marrow cell"}, "Mus musculus [14]": {"tested_on": "Mus musculus", "assay": "Anti-inflammatory activity against po dosed LPS-induced ALI C57BL/6 mouse model assessed as decrease in MPO activity in lungs treated 1 hr prior to LPS challenge and measured after 48 hrs", "format": "functional, organism-based", "settings": "dose 2-50 mg/kg, time 49.0 hrs, DDE = dose-dependent effect"}, "Mus musculus [15]": {"tested_on": "Mus musculus", "assay": "Anti-inflammatory activity against po dosed LPS-induced ALI C57BL/6 mouse model assessed as decrease in TNF-alpha level in serum treated 1 hr prior to LPS challenge and measured after 48 hrs by ELISA", "format": "functional, organism-based", "settings": "dose 2-50 mg/kg, time 49.0 hrs, DDE = dose-dependent effect"}, "Mus musculus [16]": {"tested_on": "Mus musculus", "assay": "Anti-inflammatory activity against po dosed LPS-induced ALI C57BL/6 mouse model assessed as decrease in IL-6 level in serum treated 1 hr prior to LPS challenge and measured after 48 hrs by ELISA", "format": "functional, organism-based", "settings": "dose 2-50 mg/kg, time 49.0 hrs, DDE = dose-dependent effect"}, "[17]": {"assay": "Acute toxicity in ICR mouse assessed as animal behavioural changes at 1500 mg/kg, po administered as single dose and measured for 7 days", "format": "organism-based", "settings": "in vivo, time 7 day"}, "[18]": {"target": "T1, Dipeptidyl peptidase 1 (Mus musculus)", "assay": "Inhibition of Cathepsin C in C57BL/6 mouse Bone marrow cells assessed as reduction of NSPs stability by measuring stability of protease 3 at 1 uM treated for 12 hrs by Western blotting analysis", "format": "cell-based", "parameters": "scale not given: the % may be the effect or the level left", "settings": "Bone marrow cell"}, "[19]": {"target": "T1, Dipeptidyl peptidase 1 (Mus musculus)", "assay": "Inhibition of Cathepsin C in C57BL/6 mouse Bone marrow cells assessed as reduction of NSPs stability by measuring stability of cathepsin G at 1 uM treated for 12 hrs by Western blotting analysis", "format": "cell-based", "parameters": "scale not given: the % may be the effect or the level left", "settings": "Bone marrow cell"}, "Mus musculus [20]": {"tested_on": "Mus musculus", "assay": "In vivo inhibition of cathepsin C in bone marrow of po dosed LPS-induced ALI C57BL/6 mouse model treated 1 hr prior to LPS challenge and measured after 48 hrs", "format": "functional, organism-based", "settings": "dose 2-50 mg/kg, time 49.0 hrs, DDE = dose-dependent effect"}, "Mus musculus [21]": {"tested_on": "Mus musculus", "assay": "In vivo inhibition of cathepsin C in po dosed LPS-induced ALI C57BL/6 mouse model assessed as downregulation of Cat G activity in bone marrow treated 1 hr prior to LPS challenge and measured after 48 hrs", "format": "functional, organism-based", "settings": "dose 2-50 mg/kg, time 49.0 hrs, DDE = dose-dependent effect"}, "Mus musculus [22]": {"tested_on": "Mus musculus", "assay": "In vivo inhibition of cathepsin C in po dosed LPS-induced ALI C57BL/6 mouse model assessed as downregulation of neutrophil elastase activity in blood treated 1 hr prior to LPS challenge and measured after 48 hrs", "format": "functional, organism-based", "settings": "dose 2-50 mg/kg, time 49.0 hrs, DDE = dose-dependent effect"}, "Mus musculus [23]": {"tested_on": "Mus musculus", "assay": "Anti-inflammatory activity against po dosed LPS-induced ALI C57BL/6 mouse model assessed as increase in IL-10 level in serum treated 1 hr prior to LPS challenge and measured after 48 hrs by ELISA", "format": "functional, organism-based", "settings": "dose 2-50 mg/kg, time 49.0 hrs, DDE = dose-dependent effect"}, "Mus musculus [24]": {"tested_on": "Mus musculus", "assay": "Anti-inflammatory activity against po dosed LPS-induced ALI C57BL/6 mouse model assessed as decrease in IL-6 level in lungs treated 1 hr prior to LPS challenge and measured after 48 hrs by ELISA", "format": "functional, organism-based", "settings": "dose 2-50 mg/kg, time 49.0 hrs, DDE = dose-dependent effect"}}, "data": [{"smiles": "CC(=O)Nc1cccc(Nc2nc(Nc3ccc(-c4ccsc4)cn3)ncc2Cl)c1", "values": [{"measurement": "IC50", "setting": "Dipeptidyl peptidase 1", "value": 70.2, "unit": "nM"}, {"measurement": "IC50", "setting": "Cathepsin B", "value": "> 5000", "unit": "nM"}, {"measurement": "Activity", "setting": "[1]", "value": "Non-Toxic"}, {"measurement": "half-life", "setting": "[2]", "value": 1.79, "unit": "h"}, {"measurement": "half-life", "setting": "[3]", "value": 2.5, "unit": "h"}, {"measurement": "Tmax", "setting": "[4]", "value": 0.77, "unit": "h"}, {"measurement": "MRT", "setting": "[5]", "value": 2.35, "unit": "h"}, {"measurement": "MRT", "setting": "[6]", "value": 3.38, "unit": "h"}, {"measurement": "Cmax", "setting": "[7]", "value": 309, "unit": "ng/mL"}, {"measurement": "AUC(0-t) at 24 h", "setting": "[8]", "value": 511, "unit": "ng·h/mL"}, {"measurement": "AUC(0-t) at 24 h", "setting": "[9]", "value": 1440, "unit": "ng·h/mL"}, {"measurement": "Activity", "setting": "[10]", "value": 95.6, "unit": "%"}, {"measurement": "Activity", "setting": "[11]", "value": 93.5, "unit": "%"}, {"measurement": "Activity", "setting": "[12]", "value": 46.1, "unit": "%"}, {"measurement": "Activity", "setting": "[13]", "value": 50.1, "unit": "%"}, {"measurement": "Activity", "setting": "Mus musculus [14]", "value": "Dde"}, {"measurement": "Activity", "setting": "Mus musculus [15]", "value": "Dde"}, {"measurement": "Activity", "setting": "Mus musculus [16]", "value": "Dde"}, {"measurement": "Activity", "setting": "[17]", "value": "Non-Toxic"}, {"measurement": "Activity", "setting": "[18]", "value": 78.4, "unit": "%"}, {"measurement": "Activity", "setting": "[19]", "value": 81.1, "unit": "%"}, {"measurement": "inhibition", "setting": "Mus musculus [20]", "value": "Dde"}, {"measurement": "inhibition", "setting": "Mus musculus [21]", "value": "Dde"}, {"measurement": "inhibition", "setting": "Mus musculus [22]", "value": "Dde"}, {"measurement": "Activity", "setting": "Mus musculus [23]", "value": "Dde"}, {"measurement": "Activity", "setting": "Mus musculus [24]", "value": "Dde"}]}]}
